Results on 18 compounds are retold here after patent publication US11229208B2, “Pesticidally active bi- or tricyclic heterocycles with sulfur containing substituents” (priority 2013, dated 2022).

Molecules are shown by their SMILES. Where “and” joins values, the source holds several entries; their conditions need not be identical. Equal values may be shown once. Read-outs that look alike come from different tables or passages of the source.

The subject of data set [1] is Myzus persicae (Green Peach Aphid). The experiment in a line: Myzus persicae, sprayed sunflower leaf discs, mixed-age population. The data set is classed as in vivo. Particulars: foliar, 144 h, application rate 200 ppm, 6 days after infestation. The procedure: Example B5: Myzus persicae (Green Peach Aphid)
Sunflower leaf discs were placed on agar in a 24-well microtiter plate and sprayed with aqueous test solutions prepared from 10,000 ppm DMSO stock solutions. After drying, the leaf discs were infested with an aphid population of mixed ages. The samples were assessed for mortality 6 days after infestation.

For data set [2] the test system is unchanged. As to the kind of experiment: Myzus persicae systemic test, roots of infested pea seedlings in test solution. Type of data set: in vivo. The conditions noted are these: 144 h, test rate 24 ppm, 6 days after placing seedlings in test solutions. The procedure:
Example B6: Myzus persicae (Green Peach Aphid)
Roots of pea seedlings infested with an aphid population of mixed ages were placed directly in the aqueous test solutions prepared from 10,000 DMSO stock solutions. The samples were assessed for mortality 6 days after placing seedlings in test solutions.

Data set [3] shares this test system. As to the kind of experiment: Myzus persicae, sucrose solution feeding through Parafilm. Type of data set: in vivo. Particulars: 120 h, test rate 12 ppm, 5 days after infestation. The procedure: Example B7: Myzus persicae (Green Peach Aphid)
Test compounds from 10,000 ppm DMSO stock solutions were applied by pipette into 24-well microtiter plates and mixed with sucrose solution. The plates were closed with a stretched Parafilm. A plastic stencil with 24 holes was placed onto the plate and infested pea seedlings were placed directly on the Parafilm. The infested plate was closed with a gel blotting paper and another plastic stencil and then turned upside down. The samples were assessed for mortality 5 days after infestation.

In data set [4] the test system is Spodoptera littoralis (Egyptian Cotton Leaf Worm). The experiment in a line: Spodoptera littoralis, sprayed cotton leaf discs, L1 larvae. Type of data set: in vivo. The conditions noted are these: foliar, 72 h, read-out: mortality (control). The procedure:
Example B2: Spodoptera littoralis (Egyptian Cotton Leaf Worm)
Cotton leaf discs were placed on agar in 24-well microtiter plates and sprayed with aqueous test solutions prepared from 10,000 ppm DMSO stock solutions. After drying the leaf discs were infested with five L1 larvae. The samples were assessed for mortality 3 days after infestation.

Data set [5] concerns Diabrotica balteata (Corn Root Worm). As to the kind of experiment: Diabrotica balteata, treated artificial diet, L2 larvae. Type of data set: in vivo. The conditions noted are these: 120 h, read-out: effect in at least one of the two categories (mortality or growth inhibition). The procedure: Example B4: Diabrotica balteata (Corn Root Worm)
24-well microtiter plates with artificial diet were treated with aqueous test solutions prepared from 10,000 ppm DMSO stock solutions by pipetting. After drying, the plates were infested with L2 larvae (6 to 10 per well). The samples were assessed for mortality and growth inhibition in comparison to untreated samples 5 days after infestation.
The following compounds gave an effect of at least 80% in at least one of the two categories (mortality or growth inhibition) at an application rate of 200 ppm: […]

Data set [6] deals with Bemisia tabaci (Cotton White Fly). The experiment in a line: Bemisia tabaci, sprayed cotton leaf discs, adult white flies. Type of data set: in vivo. Particulars: foliar, 144 h, application rate 200 ppm, 6 days after incubation. The procedure: Example B10: Bemisia tabaci (Cotton White Fly)
Cotton leaf discs were placed on agar in 24-well microtiter plates and sprayed with aqueous test solutions prepared from 10,000 ppm DMSO stock solutions. After drying the leaf discs were infested with adult white flies. The samples were checked for mortality 6 days after incubation.

Data set [7] concerns Spodoptera littoralis (Egyptian Cotton Leaf Worm). As to the kind of experiment: Spodoptera littoralis systemic test, lettuce grown on treated agar, infested with eggs. The data set is classed as in vivo. The conditions noted are these: 144 h, test rate 12.5 ppm, assessed 6 days after infestation, in comparison to untreated samples, read-out: effect in at least one of the three categories (mortality, anti-feedancy, or growth inhibition). From the text: Example B1: Spodoptera littoralis (Egyptian Cotton Leaf Worm)
Test compounds were applied by pipette from 10,000 ppm DMSO stock solutions into 24-well plates and mixed with agar. Lettuce seeds were placed on the agar and the multi well plate was closed by another plate which contains also agar. After 7 days the roots have absorbed the compound and the lettuce has grown into the lid plate. The lettuce leafs were now cut off into the lid plate. Spodoptera eggs were pipetted through a plastic stencil on a humid gel blotting paper and the plate closed with it. The samples were assessed for mortality, anti-feedant effect and growth inhibition in comparison to untreated samples 6 days after infestation.
The following compounds gave an effect of at least 80% in at least one of the three categories (mortality, anti-feedancy, or growth inhibition) at a test rate of 12.5 ppm: […]

The test system of data set [8] is Plutella xylostella (Diamond Back Moth). The experiment in a line: Plutella xylostella, treated artificial diet, L2 larvae. The data set is classed as in vivo. The conditions noted are these: 120 h, application rate 200 ppm, 5 days after infestation. The procedure: Example B3: Plutella xylostella (Diamond Back Moth)
24-well microtiter plates with artificial diet were treated with aqueous test solutions prepared from 10,000 ppm DMSO stock solutions by pipetting. After drying, the plates were infested with L2 larvae (10 to 15 per well). The samples were assessed for mortality 5 days after infestation.

Data set [9] relates to Tetranychus urticae (Two-Spotted Spider Mite). The experiment in a line: Tetranychus urticae, sprayed bean leaf discs, mixed-age mite population. Particulars: foliar, 192 h, read-out: mortality on mixed population (mobile stages). The data set is classed as in vivo. The procedure: Example B11: Tetranychus urticae (Two-Spotted Spider Mite)
Bean leaf discs on agar in 24-well microtiter plates were sprayed with aqueous test solutions prepared from 10,000 ppm DMSO stock solutions. After drying the leaf discs were infested with a mite population of mixed ages. The samples were assessed for mortality on mixed population (mobile stages) 8 days after infestation.

[10] abbreviates: application rate 200 ppm, 3 days after infestation.
[11] abbreviates: application rate 200 ppm, 5 days after infestation, in comparison to untreated samples.

Usually mortality stands for the percentage killed. Compound `CCS(=O)(=O)c1nc(C(F)(F)F)sc1-c1nc2cc(C(F)(F)F)ncc2n1C` [Compound V14.05, 4-Ethylsulfonyl-5-[3-methyl-6-(trifluoromethyl)imidazo[4,5-c]pyridin-2-yl]-2-(trifluoromethyl)thiazole] had a mortality at 200 ppm in [1] of no less than 80%. This compound also yielded a mortality at 24 ppm in data set [2] of no less than 80%. In data set [3], this compound displayed a mortality at 12 ppm of no less than 80%.

As usually defined, the melting point is the temperature of the solid-liquid transition. `CCS(=O)(=O)c1cc(C(F)(F)F)nnc1-c1nc2cc(C(F)(F)F)cnc2n1C`: the melting point was in the range of 172 to 174 °C.

Turning to `CCS(=O)(=O)c1cc(C(F)(F)F)cnc1-c1nc2cc(Br)ncc2n1C` [Compound V12.20, 6-bromo-2-[3-ethylsulfonyl-5-(trifluoromethyl)-2-pyridyl]-3-methyl-imidazo[4,5-c]pyridine], the mortality at 200 ppm in data set [4] (setting [10]), in data set [1] and in data set [6] was no less than 80% each time. Also, the percent effect (mortality or growth inhibition) at 200 ppm in data set [5] (setting [11]) is no less than 80%. The same compound came in with a mortality at 24 ppm in data set [2] of no less than 80%. The mortality at 12 ppm in [3] is no less than 80%.

Turning to `CCS(=O)(=O)c1cc(C(F)(F)F)cnc1-c1nc2cc(C(F)(F)F)ncn2c1C` [Compound V16.01, 2-[3-ethylsulfonyl-5-(trifluoromethyl)-2-pyridyl]-3-methyl-7-(trifluoromethyl)imidazo[1,2-c]pyrimidine], in data set [7], the percent effect (mortality, anti-feedancy or growth inhibition) at 12.5 ppm was no less than 80%. In addition, the mortality at 200 ppm in data set [4] (setting [10]), in data set [8] and in data set [1] was no less than 80% throughout. The mortality at 12 ppm in data set [3] is no less than 80%.

In turn, `CCS(=O)(=O)c1cc(OC(F)F)cnc1-c1nc2cc(C(F)(F)F)ncc2n1C` displayed a melting point of 146 to 148 °C.

Consider `CCS(=O)(=O)c1cc(C(F)(F)F)cnc1-c1nc2cc(C(F)(F)F)ncn2n1` [Compound V16.03, 2-[3-ethylsulfonyl-5-(trifluoromethyl)-2-pyridyl]-7-(trifluoromethyl) [1,2,4]triazolo[1,5-c]pyrimidine], for which the mortality at 200 ppm in data set [8] and in data set [1] was no less than 80% each time. In addition, the percent effect (mortality or growth inhibition) at 200 ppm in data set [5] (setting [11]) is no less than 80%. The mortality at 24 ppm in [2] is no less than 80%.

Consider `CCS(=O)(=O)c1nc(C(F)(F)F)ccc1-c1nc2cc3nc(C(F)(F)F)n(C)c3nc2n1C`, for which the melting point lay within 197 to 199 °C.

Regarding `Cn1c(-c2ncc(C(F)(F)F)cc2S(C)(=O)=O)nc2cc(C(F)(F)F)ncc21` [Compound V12.18, 3-methyl-2-[3-methylsulfonyl-5-(trifluoromethyl)-2-pyridyl]-6-(trifluoromethyl)imidazo[4,5-c]pyridine], the mortality at 200 ppm in data set [4] and in data set [9] was no less than 80% throughout. Besides, the percent effect (mortality or growth inhibition) at 200 ppm in data set [5] was no less than 80%.

Take `CC1Cc2c(C(F)(F)F)ccc(-c3nc4cc(C(F)(F)F)cnc4n3C)c2S1(=O)=O` (stereo not shown): the melting point was 206 °C.

`CCS(=O)(=O)c1cc(C(F)(F)F)cnc1-c1nc2nc(C(F)(F)F)cnc2n1C` returned a melting point of 162 to 165 °C.

With `CCSc1cc(C(F)(F)F)nnc1-c1nc2cc(C(F)(F)F)cnc2n1C`, the melting point was 149 to 150 °C and 149 to 156 °C.

`CCSc1cc(C(F)(F)F)cnc1-c1nc2cc(Cl)nnc2n1C` displayed a melting point of 156 to 158 °C.

Turning to `CCS(=O)(=O)c1scnc1-c1nc2cc(C(F)(F)F)ncc2n1C` [Compound V13.05, 5-ethylsulfonyl-4-[3-methyl-6-(trifluoromethyl)imidazo[4,5-c]pyridin-2-yl]thiazole], the mortality at 200 ppm in data set [8] and in data set [6] was no less than 80% throughout. Also, the percent effect (mortality or growth inhibition) at 200 ppm in data set [5] (setting [11]) was no less than 80%.

With `CCS(=O)(=O)c1cc(C(F)(F)F)cnc1-c1nc2cc(Cl)nnc2n1C` [Compound V12.17, 3-chloro-6-[3-ethylsulfonyl-5-(trifluoromethyl)-2-pyridyl]-7-methyl-imidazo[4,5-c]pyridazine], the mortality at 200 ppm in data set [1] was no less than 80%. The compound also yielded a mortality at 24 ppm in data set [2] of no less than 80%. Besides, the mortality at 12 ppm in data set [3] is no less than 80%.

`CCS(=O)(=O)c1nsnc1-c1nc2cc(C(F)(F)F)cnc2n1C` registered a melting point of 144 to 146 °C.

On to `CCS(=O)(=O)c1nc(C(F)(F)F)ccc1-c1cn2ccc(C(F)(F)F)cc2n1`, for which the melting point fell in the range of 188 to 190 °C.

As to `CCS(=O)(=O)c1nc(C(F)(F)F)sc1-c1cn2ccc(C(F)(F)F)cc2n1`, the melting point was 126 to 128 °C.

Consider `CCS(=O)(=O)c1cc(C(F)(F)F)cnc1-c1cn2cnc(C(F)(F)F)cc2n1` [Compound V16.02, 2-[3-ethylsulfonyl-5-(trifluoromethyl)-2-pyridyl]-7-(trifluoromethyl)imidazo[1,2-c]pyrimidine], for which the percent effect (mortality, anti-feedancy or growth inhibition) at 12.5 ppm in [7] is no less than 80%. For the same compound, the mortality at 200 ppm is no less than 80% in data set [4] (setting [10]); no less than 80% in [8]; no less than 80% in data set [1]; no less than 80% in data set [9] (application rate 200 ppm, 8 days after infestation). For the same compound, the percent effect (mortality or growth inhibition) at 200 ppm in [5] (setting [11]) is no less than 80%.
